Target: T1, human NK2 receptor (Homo sapiens, UniProt P21452)
T1 construct: purchased Perkin Elmer biosignal Inc. 6110510
T1 sequence (P21452 1-398): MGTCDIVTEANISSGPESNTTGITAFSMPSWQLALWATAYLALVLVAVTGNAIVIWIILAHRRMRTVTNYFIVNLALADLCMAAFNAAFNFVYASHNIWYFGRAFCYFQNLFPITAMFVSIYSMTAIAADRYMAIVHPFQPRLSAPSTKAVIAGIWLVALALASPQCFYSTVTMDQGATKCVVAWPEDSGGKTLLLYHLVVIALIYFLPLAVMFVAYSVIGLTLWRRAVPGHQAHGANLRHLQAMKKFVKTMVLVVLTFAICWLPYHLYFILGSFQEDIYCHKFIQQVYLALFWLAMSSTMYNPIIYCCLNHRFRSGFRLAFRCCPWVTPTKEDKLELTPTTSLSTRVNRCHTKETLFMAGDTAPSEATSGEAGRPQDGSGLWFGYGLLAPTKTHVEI
Experiment: [3H]SR48968 competition binding assay
Settings: [3H]SR48968 displacement, membranes of CHO cells stably expressing recombinant human NK2 receptor; Ki from IC50 by Cheng-Prussoff
Outline: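 Membranes from CHO cells stably expressing recombinant human NK2 were incubated 75 min at RT with [3H]SR48968 at its KD and 10 compound concentrations (0.0003–10 μM) in Tris-HCl pH 7.4, MnCl2, chymostatin, BSA. Filter-bound radioactivity was counted; Hill-fitted IC50 converted to Ki via Cheng-Prusoff.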

SMILES	Ki
Cc1cc(Cl)cc(C(=O)N(C)[C@@H]2CN(C(=O)c3ccc(C#N)cc3)C[C@H]2c2ccc(Cl)c(Cl)c2)n1 (racemic) [Example 66, rac-4-Chloro-6-methyl-pyridine-2-carboxylic acid [(3S,4R)-1-(4-cyano-benzoyl)-4-(3,4-dichloro-phenyl)-pyrrolidin-3-yl]-methyl-amide]	49.8 nM
COc1cc(C(=O)N(C)[C@@H]2CN(C(=O)c3ccc(C#N)cc3)C[C@H]2c2ccc(Cl)c(Cl)c2)nc2ccccc12 (racemic) [Example 67, rac-4-Methoxy-quinoline-2-carboxylic acid [(3S,4R)-1-(4-cyano-benzoyl)-4-(3,4-dichloro-phenyl)-pyrrolidin-3-yl]-methyl-amide]	52.9 nM
CCc1cc(Cl)cc(C(=O)N(C)[C@@H]2CN(C(=O)c3ccc(C#N)cc3)C[C@H]2c2ccc(Cl)c(Cl)c2)n1 (racemic) [Example 68, rac-4-Chloro-6-ethyl-pyridine-2-carboxylic acid [(3S,4R)-1-(4-cyano-benzoyl)-4-(3,4-dichloro-phenyl)-pyrrolidin-3-yl]-methyl-amide]	74.3 nM
CN(C(=O)c1ccc(C#N)cn1)[C@@H]1CN(C(=O)c2ccc(C#N)cc2)C[C@H]1c1ccc(Cl)c(Cl)c1 (racemic) [Example 70, rac-5-Cyano-pyridine-2-carboxylic acid [(3S,4R)-1-(4-cyano-benzoyl)-4-(3,4-dichloro-phenyl)-pyrrolidin-3-yl]-methyl-amide]	39.7 nM
COc1nc(C(=O)N(C)[C@@H]2CN(C(=O)c3ccc(C#N)cc3)C[C@H]2c2ccc(Cl)c(Cl)c2)ccc1C#N (racemic) [Example 71, rac-5-Cyano-6-methoxy-pyridine-2-carboxylic acid [(3S,4R)-1-(4-cyano-benzoyl)-4-(3,4-dichloro-phenyl)-pyrrolidin-3-yl]-methyl-amide]	34.4 nM
COc1ncc(C(=O)N(C)[C@@H]2CN(C(=O)c3ccc(C#N)cc3)C[C@H]2c2ccc(Cl)c(Cl)c2)cn1 (racemic) [Example 76, rac-2-Methoxy-pyrimidine-5-carboxylic acid [(3S,4R)-1-(4-cyano-benzoyl)-4-(3,4-dichloro-phenyl)-pyrrolidin-3-yl]-methyl-amide]	96 nM
Cc1ccc(C(=O)N(C)[C@@H]2CN(C(=O)c3ccc(C#N)cc3)C[C@H]2c2ccc(Cl)c(Cl)c2)cn1 (racemic) [Example 77, rac-N-[(3S,4R)-1-(4-Cyano-benzoyl)-4-(3,4-dichloro-phenyl)-pyrrolidin-3-yl]-6,N-dimethyl-nicotinamide]	28.8 nM
CN(C(=O)c1ccc(C#N)nc1)[C@@H]1CN(C(=O)c2ccc(C#N)cc2)C[C@H]1c1ccc(Cl)c(Cl)c1 (racemic) [Example 80, rac-6-Cyano-N-[(3S,4R)-1-(4-cyano-benzoyl)-4-(3,4-dichloro-phenyl)-pyrrolidin-3-yl]-N-methyl-nicotinamide]	40 nM
Cc1cncc(C(=O)N(C)[C@@H]2CN(C(=O)c3ccc(C#N)cc3)C[C@H]2c2ccc(Cl)c(Cl)c2)c1 (racemic) [Example 83, rac-N-[(3S,4R)-1-(4-Cyano-benzoyl)-4-(3,4-dichloro-phenyl)-pyrrolidin-3-yl]-5,N-dimethyl-nicotinamide]	97.1 nM
CN(C(=O)c1ccc(F)nc1)[C@@H]1CN(C(=O)c2ccc(C#N)cc2)C[C@H]1c1ccc(Cl)c(Cl)c1 (racemic) [Example 85, rac-N-[(3S,4R)-1-(4-Cyano-benzoyl)-4-(3,4-dichloro-phenyl)-pyrrolidin-3-yl]-6-fluoro-N-methyl-nicotinamide]	82.1 nM
COc1ccc(C(=O)N(C)[C@H]2CN(C(=O)c3ccc(F)cc3C)C[C@@H]2c2ccc(Cl)cc2)cc1C(F)(F)F (racemic) [Example 89, N-[(3RS,4SR)-4-(4-Chloro-phenyl)-1-(4-fluoro-2-methyl-benzoyl)-pyrrolidin-3-yl]-4-methoxy-N-methyl-3-trifluoromethyl-benzamide]	23.3 nM

Other lines, results leading:

Ki	SMILES
23.3 nM	CN(C(=O)c1ccc(Cl)cn1)[C@@H]1CN(C(=O)c2ccc(C#N)cc2)C[C@H]1c1ccc(Cl)c(Cl)c1 (racemic) [Example 69, rac-5-Chloro-pyridine-2-carboxylic acid [(3S,4R)-1-(4-cyano-benzoyl)-4-(3,4-dichloro-phenyl)-pyrrolidin-3-yl]-methyl-amide]
0.58 nM	CN(C(=O)c1ccc(Cl)c(C(F)(F)F)c1)[C@@H]1CN(C(=O)c2ccc(C#N)cc2)C[C@H]1c1ccc(Cl)c(Cl)c1 (racemic) [Example 72, rac-4-Chloro-N-[(3S,4R)-1-(4-cyano-benzoyl)-4-(3,4-dichloro-phenyl)-pyrrolidin-3-yl]-N-methyl-3-trifluoromethyl-benzamide]
12.4 nM	COc1ccc(C(=O)N(C)[C@@H]2CN(C(=O)c3ccc(C#N)cc3)C[C@H]2c2ccc(Cl)c(Cl)c2)cc1F (racemic) [Example 73, rac-N-[(3S,4R)-1-(4-Cyano-benzoyl)-4-(3,4-dichloro-phenyl)-pyrrolidin-3-yl]-3-fluoro-4-methoxy-N-methyl-benzamide]
1.3 nM	COc1ccc(C(=O)N(C)[C@@H]2CN(C(=O)c3ccc(C#N)cc3)C[C@H]2c2ccc(Cl)c(Cl)c2)cc1C(C)(C)C (racemic) [Example 74, rac-3-tert-Butyl-N-[(3S,4R)-1-(4-cyano-benzoyl)-4-(3,4-dichloro-phenyl)-pyrrolidin-3-yl]-4-methoxy-N-methyl-benzamide]
23 nM	CN(C(=O)c1ccc(OCC2CC2)cc1)[C@@H]1CN(C(=O)c2ccc(C#N)cc2)C[C@H]1c1ccc(Cl)c(Cl)c1 (racemic) [Example 75, rac-N-[(3S,4R)-1-(4-Cyano-benzoyl)-4-(3,4-dichloro-phenyl)-pyrrolidin-3-yl]-4-cyclopropylmethoxy-N-methyl-benzamide]
7.8 nM	CN(C(=O)c1ccc(Cl)nc1)[C@@H]1CN(C(=O)c2ccc(C#N)cc2)C[C@H]1c1ccc(Cl)c(Cl)c1 (racemic) [Example 78, rac-6-Chloro-N-[(3S,4R)-1-(4-cyano-benzoyl)-4-(3,4-dichloro-phenyl)-pyrrolidin-3-yl]-N-methyl-nicotinamide]
5.8 nM	CN(C(=O)c1ccc(C(F)(F)F)nc1)[C@@H]1CN(C(=O)c2ccc(C#N)cc2)C[C@H]1c1ccc(Cl)c(Cl)c1 (racemic) [Example 81, rac-N-[(3S,4R)-1-(4-Cyano-benzoyl)-4-(3,4-dichloro-phenyl)-pyrrolidin-3-yl]-N-methyl-6-trifluoromethyl-nicotinamide]
11.7 nM	CN(C(=O)c1ccc(OCC(F)(F)F)nc1)[C@@H]1CN(C(=O)c2ccc(C#N)cc2)C[C@H]1c1ccc(Cl)c(Cl)c1 (racemic) [Example 82, rac-N-[(3S,4R)-1-(4-Cyano-benzoyl)-4-(3,4-dichloro-phenyl)-pyrrolidin-3-yl]-N-methyl-6-(2,2,2-trifluoro-ethoxy)-nicotinamide]
17.8 nM	COc1ccc(C(=O)N(C)[C@@H]2CN(C(=O)c3ccc(C#N)cc3)C[C@H]2c2ccc(Cl)c(Cl)c2)cn1 (racemic) [Example 86, rac-N-[(3S,4R)-1-(4-Cyano-benzoyl)-4-(3,4-dichloro-phenyl)-pyrrolidin-3-yl]-6-methoxy-N-methyl-nicotinamide]
0.8 nM	COc1ccc(C(=O)N(C)[C@H]2CN(C(=O)C3CCN(C(=O)C4(C)CC4)CC3)C[C@@H]2c2ccc(Cl)cc2)cc1C(F)(F)F (racemic) [Example 87, N-{(3RS,4SR)-4-(4-Chloro-phenyl)-1-[1-(1-methyl-cyclopropanecarbonyl)-piperidine-4-carbonyl]-pyrrolidin-3-yl}-4-methoxy-N-methyl-3-trifluoromethyl-benzamide]
17.8 nM	COc1ccc(C(=O)N(C)[C@H]2CN(C(=O)c3ccc(F)cc3)C[C@@H]2c2ccc(Cl)cc2)cc1C(F)(F)F (racemic) [Example 88, N-[(3RS,4SR)-4-(4-Chloro-phenyl)-1-(4-fluoro-benzoyl)-pyrrolidin-3-yl]-4-methoxy-N-methyl-3-trifluoromethyl-benzamide]
11.7 nM	COc1ccc(C(=O)N(C)[C@H]2CN(C(=O)c3ccc(C#N)nc3)C[C@@H]2c2ccc(Cl)cc2)cc1C(F)(F)F (racemic) [Example 90, N-[(3RS,4SR)-4-(4-Chloro-phenyl)-1-(6-cyano-pyridine-3-carbonyl)-pyrrolidin-3-yl]-4-methoxy-N-methyl-3-trifluoromethyl-benzamide]
13.9 nM	COc1ccc(C(=O)N(C)[C@H]2CN(C(=O)c3ccc(C#N)cc3)C[C@@H]2c2ccc(Cl)cc2)cc1C(F)(F)F (racemic) [Example 92, N-[(3RS,4SR)-4-(4-Chloro-phenyl)-1-(4-cyano-benzoyl)-pyrrolidin-3-yl]-4-methoxy-N-methyl-3-trifluoromethyl-benzamide]
2.2 nM	COc1ccc(C(=O)N(C)[C@H]2CN(C(=O)C3CCN(C(=O)OC(C)(C)C)CC3)C[C@@H]2c2ccc(Cl)cc2)cc1C(F)(F)F (racemic) [Example 95, 4-{(3SR,4RS)-3-(4-Chloro-phenyl)-4-[(4-methoxy-3-trifluoromethyl-benzoyl)-methyl-amino]-pyrrolidine-1-carbonyl}-piperidine-1-carboxylic acid tert-butyl ester]

Reference: patent publication US8404679B2, “Pyrrolidine derivatives as NK2 receptor antagonists” (Hoffmann-La Roche Inc., priority 2008, dated 2013)
